# Measurements published in PMC10110569, “Structure and mechanism of the alkane-oxidizing enzyme AlkB” (Nature Communications, 2023).
# T1: FtAlkB (Fontimonas thermophila, UniProt A0A1I2KHB9)
# T1 construct: gene SAMN04488120_1209; residues 4-399, codon optimized, pRSF vector, E. coli BL21 (DE3), 3C protease digestion (tag cut), DDM-solubilized; 45 kD; cryo-EM with nanobody AP32; lysate assays with AlkG and AlkT as redox partners
# T1 sequence (A0A1I2KHB9 4-399): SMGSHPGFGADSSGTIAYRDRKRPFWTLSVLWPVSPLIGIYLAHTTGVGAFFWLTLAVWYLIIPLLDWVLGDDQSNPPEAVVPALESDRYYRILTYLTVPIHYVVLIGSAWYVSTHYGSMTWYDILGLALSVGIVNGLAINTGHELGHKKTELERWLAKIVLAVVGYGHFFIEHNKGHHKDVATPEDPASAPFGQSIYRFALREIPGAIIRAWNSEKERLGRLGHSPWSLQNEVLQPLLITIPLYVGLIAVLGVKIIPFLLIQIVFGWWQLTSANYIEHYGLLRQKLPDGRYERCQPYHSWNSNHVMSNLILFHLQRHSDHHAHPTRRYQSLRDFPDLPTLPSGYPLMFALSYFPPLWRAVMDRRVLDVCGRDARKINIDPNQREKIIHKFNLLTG
# T2: Fontimonas thermophila alkane monooxygenase AlkB (FtAlkB), amino acids 4-399 (Fontimonas thermophila)
# T2 construct: Alkane monooxygenase AlkB of Fontimonas thermophila, amino acids 4-399, codon optimized, in pRSF vector; Membrane protein kept in DDM (0.02% in SEC buffer); source: E. coli BL21 (DE3), solubilized in 1% DDM, purified (cobalt resin, 3C protease digestion, SEC)
# T2 chain: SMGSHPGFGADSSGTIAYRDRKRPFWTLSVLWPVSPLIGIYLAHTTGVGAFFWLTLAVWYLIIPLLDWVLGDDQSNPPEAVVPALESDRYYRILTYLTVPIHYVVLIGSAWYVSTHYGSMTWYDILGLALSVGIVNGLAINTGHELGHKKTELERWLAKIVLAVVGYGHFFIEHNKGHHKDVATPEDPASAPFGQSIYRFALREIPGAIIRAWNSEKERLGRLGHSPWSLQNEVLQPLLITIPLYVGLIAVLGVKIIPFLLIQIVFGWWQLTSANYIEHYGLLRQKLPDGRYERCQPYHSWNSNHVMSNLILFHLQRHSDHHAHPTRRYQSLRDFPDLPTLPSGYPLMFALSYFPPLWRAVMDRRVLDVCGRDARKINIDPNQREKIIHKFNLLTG
# What was measured:
# FtAlkB = target: T1, FtAlkB; experiment: GC-MS alkane hydroxylation assay, purified enzyme; format: biochemical; settings: purified AlkG, maize ferredoxin reductase, NADPH; 37 °C
# [1] = target: T2, Fontimonas thermophila alkane …; experiment: cryo-EM structure; FtAlkB-nanobody AP32 complex in 20 mM HEPES pH 7.4, 150 mM NaCl, 0.02% DDM; single-particle cryo-EM, 3.59 Å for FtAlkB-nanobody (3.45 Å with a mask on FtAlkB only); settings: both partners purified
binding result [1],Molecule,"GC-MS alkane hydroxylation assay, purified enzyme (FtAlkB)"
–,CCCCCCCC [octane],FtAlkB displayed robust alkane hydroxylase activities on a model alkane octane
binds,"Nanobody AP32 (anti-FtAlkB nanobody) (VHH, Synthetic nanobody from a library after three runs of selection; the model was started from the nanobody of PDB 7SL8 with the CDRs rebuilt, so 7SL8 is not this nanobody; also called FtAlkB-specific nanobody; source: E. coli BL21 (DE3), purified) VHH: QVQLQESGGGLVQAGGSLRLSCAASGTISRYWTMGWYRQAPGKERELVAGISEGGSTNYADSVKGRFTISRDNAKNTVYLQMNSLKPEDTAVYYCAVTYRGPWFNRDPHYYWGQGTQVTVSS",–
